In ChEMBL document CHEMBL1150880, “Novel and insecticidal isobutylamides from dinosperma erythrococca” (J Nat Prod, 1998):
Calls of active or inactive are those of the source. The rule behind the calls is not given here.

Experiments:
Musca domestica [1] = experiment: Insecticidal activity against housefly at 500 ppm after 3 to 5 days; type: functional, organism-based
Heliothis virescens [2] = experiment: Insecticidal activity against tobacco budworm at 500 ppm after 3 to 5 days; type: functional
Musca domestica [3] = experiment: Insecticidal activity against housefly after 3 to 5 days relative to cypermethrin; type: functional, organism-based
Musca domestica [4] = experiment: Insecticidal activity against housefly after 3 to 5 days; type: functional, organism-based
Musca domestica [5] = experiment: Insecticidal activity against housefly after 3 to 5 days relative to permethrin; type: functional
Heliothis virescens [6] = experiment: Insecticidal activity against tobacco budworm after 3 to 5 days; type: functional, organism-based
Heliothis virescens [7] = experiment: Insecticidal activity against tobacco budworm after 3 to 5 days relative to profenofos; type: functional
Musca domestica [8] = experiment: Insecticidal activity against housefly at 1000 ppm after 3 to 5 days; type: functional, organism-based
Heliothis virescens [9] = experiment: Insecticidal activity against tobacco budworm at 1000 ppm after 3 to 5 days; type: functional, organism-based
Musca domestica [10] = experiment: Insecticidal activity against housefly at 2500 ppm after 3 to 5 days; type: functional, organism-based
Heliothis virescens [11] = experiment: Insecticidal activity against tobacco budworm at 2500 ppm after 3 to 5 days; type: functional, organism-based

With `CC(C)CNC(=O)CC1CCc2cc3c(cc2O1)OCO3` (stereo not given) the Activity (Musca domestica [1]) was “inactive” and the Activity (Heliothis virescens [2]) was “inactive”.
In the case of `CC(C)CNC(=O)/C=C/C=C/Cc1ccccc1`, the Activity (Musca domestica [1]) was “Active”, the Activity (Musca domestica [3]) was 1.8% and the EC50 (Musca domestica [4]) was 59.9 ppm.
`CC(C)CNC(=O)/C=C/C=C/CC1CCc2ccc(Cl)cc2C1` (stereo not given) was tested, and the Activity (Musca domestica [5]) was 40%.
`COc1c2c(cc3ccoc13)CCC(C/C=C/C=C/C(=O)NCC(C)C)O2` (stereo not given) was tested, and the Activity (Musca domestica [1]) was “inactive” and the Activity (Heliothis virescens [2]) was “inactive”.
For `CC(C)CNC(=O)/C=C/C=C/CC1CCc2cc3c(cc2O1)OCO3` (stereo not given) [ERYTHROCOCCAMIDE A], the EC50 (Heliothis virescens [6]) was 74.2 ppm, the Activity (Musca domestica [5]) was 9% and the Activity (Heliothis virescens [7]) was 9.9%. For the same compound, the Activity (Musca domestica [1]) was “Active”, the EC50 (Musca domestica [3]) was 3 ppm and the EC50 (Musca domestica [4]) was 20.2 ppm.
`CCCCC/C=C/C=C/C(=O)NCC(C)C` was tested, and the Activity (Musca domestica [8]) was “inactive”, the Activity (Heliothis virescens [9]) was “inactive” and the Activity (Musca domestica [10]) was “Active”.
For `CC(C)CNC(=O)/C=C/c1ccc2c(c1)OCO2`, the Activity (Heliothis virescens [11]) was “inactive” and the Activity (Musca domestica [10]) was “inactive”.
`CC(C)(O)CNC(=O)/C=C/C=C/Cc1ccccc1` gave an Activity (Heliothis virescens [2]) of 80%.
